# Patent US9157105B2, “Biosynthesis of CMP-legionaminic acid from fructose-6-P, and respective pathway intermediates, using novel GDP-linked precursors” (priority 2008, dated 2015)
# How the values were obtained:
# [1] = biological target: T1, His6GlmU (Cj0821, N-acetyltransferase) (Campylobacter jejuni subsp. jejuni serotype O:2, UniProt Q9PPA2); assay: His6GlmU N-acetylation reaction (CE-MS); type: biochemical, Campylobacter jejuni 11168; details: 1 mM substrate, 1.2 mM acetyl-CoA
# T1 construct: made in house; host or cells: E. coli BL21[DE3]
# Protocol: (§1) Enzymatic reactions were performed for 4.5 h at 37° C., and then overnight at 25° C., with approximately 200 μg ml^−1 respective protein concentration using chemicals from Sigma (unless otherwise indicated). GDP-glucosamine biosynthesis. The ‘one-pot’ enzymatic synthesis of GDP-GlcN from Fru-6-P (I→IV) was accomplished using a 3 ml reaction containing His6PtmF, PtmAHis6, PgmLHis6, His6PtmE, 5 mM Fru-6-P (I), 10 mM L-Gln, 1 mM DTT, 5 mM MgCl2, 0.8 U ml^−1 pyrophosphatase, and 2.5 mM GTP in 25 mM Tris pH 7.5. Large-scale enzymatic synthesis of GDP-GlcN (IV) was accomplished using a 12 ml reaction containing 50 mM Tris pH 7.5, 1 mM GTP, 1 mM MgCl2, 0.8 U ml^−1 pyrophosphatase, 1.2 mM GlcN-1-P (III) and approximately 4.8 mg of His6PtmE. The large-scale enzymatic synthesis of GDP-GlcNAc was performed similar to that above, except the scale was increased five-fold and GlcNAc-1-P was used in place of GlcN-1-P (III). […] In addition, the substrate flexibility of His6LegG was assessed using a 300 μl reaction containing 40 μg His6LegG, 25 mM sodium phosphate pH 7.3, 25 mM NaCl, and 0.75 mM UDP-2,4-diacetamido-2,4,6-trideoxy-α-D-Glc, with incubation at 37° C. for 1.5 h, and then overnight at 25° C. […] Quantification of NDP-sugar preparations was determined using the molar extinction coefficients of CMP (ε260=7,400), GDP (ε260=11,500), TDP (ε260=8,700), and UDP (ε260=10,000). […]
# [2] = tested on: LegB (Cj1319, 4,6-dehydratase); assay: LegB C4,6 dehydratase reaction with NDP-sugars; type: biochemical, Campylobacter jejuni 11168
# Protocol: (§2) Enzymatic reactions were performed for 4.5 h at 37° C., and then overnight at 25° C., with approximately 200 μg ml^−1 respective protein concentration using chemicals from Sigma (unless otherwise indicated). GDP-glucosamine biosynthesis. The ‘one-pot’ enzymatic synthesis of GDP-GlcN from Fru-6-P (I→IV) was accomplished using a 3 ml reaction containing His6PtmF, PtmAHis6, PgmLHis6, His6PtmE, 5 mM Fru-6-P (I), 10 mM L-Gln, 1 mM DTT, 5 mM MgCl2, 0.8 U ml^−1 pyrophosphatase, and 2.5 mM GTP in 25 mM Tris pH 7.5. Large-scale enzymatic synthesis of GDP-GlcN (IV) was accomplished using a 12 ml reaction containing 50 mM Tris pH 7.5, 1 mM GTP, 1 mM MgCl2, 0.8 U ml^−1 pyrophosphatase, 1.2 mM GlcN-1-P (III) and approximately 4.8 mg of His6PtmE. The large-scale enzymatic synthesis of GDP-GlcNAc was performed similar to that above, except the scale was increased five-fold and GlcNAc-1-P was used in place of GlcN-1-P (III). Assessment of His6PtmE substrate specificity was accomplished using 9 reactions, 80 μl each, containing 50 mM Tris pH 7.5, 2 mM MgCl2, 50 μg His6PtmE, and various combinations of 10 mM sugar-1-P (GalN-1-P, GlcN-1-P or GlcNAc-1-P) and 0.2 mM NTP (CTP, GTP, or TTP). Conversion of GDP-GlcN to GDP-GlcNAc. The His6GlmU reaction was performed using 1 mM GDP-GlcN (IV), 1.2 mM acetyl-CoA and His6GlmU in 25 mM sodium phosphate pH 7.8, 25 mM NaCl, 10 mM β-mercaptoethanol. In addition, a control reaction was performed containing 1 mM GlcN-1-P (III) instead of IV. Biosynthesis of legionaminic acid from GDP-GlcNAc. The stepwise enzymatic synthesis of intermediates or products was accomplished in 2 stages (V→VI→VII→VIII, and then VIII→IX→X) using 1 mM of V, 0.5 mM NAD, 0.8 mM PLP, 8 mM L-Glu, 1.2 mM acetyl-CoA, 1.2 mM PEP, LegBHis6, His6LegC, His6LegH, His6LegG, and His6LegI as appropriate, in 25 mM sodium phosphate pH 7.3, 25 mM NaCl. Assessment of His6LegG activity involved monitoring the reaction kinetics by ^1H NMR (see NMR spectroscopy) for 75 min using 0.75 mM GDP-2,4-diacetamido-2,4,6-trideoxy-α-D-Glc (VIII), 4 μg His6LegG in 200 μl of 25 mM sodium phosphate pH 7.3, 25 mM NaCl at 25° C. In addition, the substrate flexibility of His6LegG was assessed using a 300 μl reaction containing 40 μg His6LegG, 25 mM sodium phosphate pH 7.3, 25 mM NaCl, and 0.75 mM UDP-2,4-diacetamido-2,4,6-trideoxy-α-D-Glc, with incubation at 37° C. for 1.5 h, and then overnight at 25° C. Biosynthesis of CMP-legionaminic acid. The CMP-activation of legionaminic acid (X→XI) was performed using a 20 ml reaction containing approximately 0.2 mM of X, 50 mM MgCl2, 3 mM CTP, and 15 mg of LegFHis6 in 25 mM sodium phosphate pH 7.8, 25 mM NaCl, with incubation at 37° C. for 5 h, and then 25° C. for 72 h. Metabolite purification. Typically, reactions were passed through an Amicon Ultra-15 (10,000 molecular weight cut-off) or Ultra-4 (5,000 molecular weight cut-off) filter membrane before analysis. As required, NDP-sugar preparations (GDP-Glc, GDP-GlcN, GDP-GlcNAc, CDP-GlcNAc, TDP-GlcNAc, and CMP-Leg) were lyophilized and desalted/purified using a Superdex Peptide 10/300 GL (Amersham Biosciences) column in 25 mM ammonium bicarbonate, pH 7.9. For further purity, the NDP-sugar samples above were subjected to anion-exchange chromatography (Mono Q 4.6/100 PE, Amersham Biosciences) using ammonium bicarbonate pH 7.9. Quantification of NDP-sugar preparations was determined using the molar extinction coefficients of CMP (ε260=7,400), GDP (ε260=11,500), TDP (ε260=8,700), and UDP (ε260=10,000).
# CE analysis was performed using either a P/ACE 5510 or P/ACE MDQ system (Beckman Instruments, Mississauga, Ont) with diode array detection. The capillaries were bare silica 50 μm×50 cm, with a detector at 50 cm, and the running buffer was 25 mM sodium tetraborate pH 9.4. Samples were introduced by pressure injection for 6 sec, and the separation was performed at 18 kV for 20 min. Peak integration was done using the Beckman P/ACE station software.
# [3] = biological target: T2, His6LegG (Cj1328, NDP-sugar hydrolase/2-epimerase) (Campylobacter jejuni subsp. jejuni serotype O:2, UniProt Q0P8T0); assay: His6LegG activity and substrate flexibility (1H NMR, CE); type: biochemical, Campylobacter jejuni 11168
# T2 construct: made in house; host or cells: E. coli BL21[DE3]
# Protocol: as §2, with “The CMP-activation of legionaminic acid (X→XI) was performed using a 20 ml reaction containing approximately 0.2 mM of X, 50 mM MgCl2, 3 mM CTP, and 15 mg of LegFHis6 in 25 mM sodium phosphate pH 7.8, 25 mM NaCl, with incubation at 37° C. for 5 h, and then 25° C. for 72 h. Metabolite purification. Typically, reactions were passed through an Amicon Ultra-15 (10,000 molecular weight cut-off) or Ultra-4 (5,000 molecular weight cut-off) filter membrane before analysis. As required, NDP-sugar preparations (GDP-Glc, GDP-GlcN, GDP-GlcNAc, CDP-GlcNAc, TDP-GlcNAc, and CMP-Leg) were lyophilized and desalted/purified using a Superdex Peptide 10/300 GL (Amersham Biosciences) column in 25 mM ammonium bicarbonate, pH 7.9. For further purity, the NDP-sugar samples above were subjected to anion-exchange chromatography (Mono Q 4.6/100 PE, Amersham Biosciences) using ammonium bicarbonate pH 7.9.” left out, “(ε260=10,000). […]” for “(ε260=10,000).”
# [4] = tested on: LegC (Cj1320, PLP-dependent aminotransferase); assay: LegC aminotransferase reaction; type: biochemical, Campylobacter jejuni 11168; details: L-Glu
# Protocol: as §1
# [5] = tested on: LegH (Cj1298, N-acetyltransferase); assay: LegH N-acetyltransferase reaction; type: biochemical, Campylobacter jejuni 11168; details: acetyl-CoA
# Protocol: as §1
# [6] = biological target: T3, PglD (N-acetyltransferase) (Campylobacter jejuni subsp. jejuni serotype O:2, UniProt Q0P9D1); assay: PglD N-acetyltransferase reaction; type: biochemical; details: acetyl-CoA
# T3 construct: His6 (C); made in house; host or cells: E. coli BL21[DE3]
# T3 sequence (Q0P9D1 whole entry): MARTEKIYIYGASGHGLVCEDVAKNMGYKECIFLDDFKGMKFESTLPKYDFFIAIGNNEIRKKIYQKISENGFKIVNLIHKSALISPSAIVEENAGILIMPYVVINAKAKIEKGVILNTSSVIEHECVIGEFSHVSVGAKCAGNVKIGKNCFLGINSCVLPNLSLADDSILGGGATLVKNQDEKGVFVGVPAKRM
# T2 sequence (Q0P8T0 whole entry): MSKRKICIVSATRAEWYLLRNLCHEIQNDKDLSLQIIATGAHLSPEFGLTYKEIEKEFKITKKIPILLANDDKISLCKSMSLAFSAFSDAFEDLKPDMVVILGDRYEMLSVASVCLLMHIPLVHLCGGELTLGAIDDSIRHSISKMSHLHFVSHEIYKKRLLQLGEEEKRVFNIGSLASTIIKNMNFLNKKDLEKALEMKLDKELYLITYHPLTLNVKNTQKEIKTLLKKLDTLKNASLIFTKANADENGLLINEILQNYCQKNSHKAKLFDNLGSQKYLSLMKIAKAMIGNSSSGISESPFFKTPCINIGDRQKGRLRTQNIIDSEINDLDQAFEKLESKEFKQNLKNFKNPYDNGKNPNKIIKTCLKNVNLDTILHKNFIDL
# T1 sequence (Q9PPA2 whole entry): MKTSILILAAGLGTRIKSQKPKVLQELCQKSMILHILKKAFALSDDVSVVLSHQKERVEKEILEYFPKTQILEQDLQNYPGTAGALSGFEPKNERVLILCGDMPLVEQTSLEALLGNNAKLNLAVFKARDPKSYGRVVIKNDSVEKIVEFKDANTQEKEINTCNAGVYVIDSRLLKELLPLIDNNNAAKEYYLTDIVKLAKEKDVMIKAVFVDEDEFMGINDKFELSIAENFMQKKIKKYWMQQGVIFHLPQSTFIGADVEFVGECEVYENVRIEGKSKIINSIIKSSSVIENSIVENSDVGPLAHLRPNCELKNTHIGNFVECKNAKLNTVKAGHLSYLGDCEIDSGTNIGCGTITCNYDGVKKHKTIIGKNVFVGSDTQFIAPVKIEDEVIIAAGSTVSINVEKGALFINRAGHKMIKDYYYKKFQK
smiles,measurement,setting,value
"Nc1nc2c(ncn2C2OC(COP(=O)(O)OP(=O)(O)OC3OC(CO)C(O)C(O)C3N)C(O)C2O)c(=O)[nH]1 [IV, GDP-α-D-glucosamine]",GlmU N-acetylation of substrate (conversion of IV to V),[1],not to completion
same,LegB reaction product formation,[2]; in the presence or absence of NAD(P)+,did not yield discernable product
"CC(=O)N[C@H]1[C@@H](OP(=O)(O)OP(=O)(O)OC[C@H]2O[C@@H](n3cnc4c(=O)[nH]c(N)nc43)[C@H](O)[C@@H]2O)O[C@H](CO)[C@@H](O)[C@@H]1O [V, GDP-N-acetyl-α-D-glucosamine]",LegG turnover of substrate assessed by CE,[3],moderate efficiency
same,"LegB C4,6 dehydration of substrate",[2]; NAD+ added exogenously,efficient turnover
same,"LegB C4,6 dehydration of substrate","[2]; reaction with substrate and LegB only, no exogenous NAD(P)+",failed
"CC(=O)N[C@H]1[C@@H](OP(=O)(O)OP(=O)(O)OC[C@H]2O[C@@H](n3cnc4c(=O)[nH]c(N)nc43)[C@H](O)[C@@H]2O)O[C@H](C)C(=O)[C@@H]1O [VI, GDP-2-acetamido-2,6-dideoxy-α-D-xylo-hexos-4-ulose]",LegC aminotransfer of substrate,[4],efficient aminotransfer
"CC(=O)NC1C(OP(=O)(O)OP(=O)(O)OCC2OC(n3cnc4c(=O)[nH]c(N)nc43)C(O)C2O)OC(C)C(N)C1O [VII, GDP-4-amino-4,6-dideoxy-N-acetyl-α-D-glucosamine]",LegH conversion of VII to VIII,[5],100%
same,PglD N-acetyltransfer of substrate,[6],able to catalyze N-acetyltransfer
